# Source: PubChem BioAssay (NCI)
# Several values for one entry are separate records, joined by “and”; a condition that tells them apart may be missing. Equal entries are not always repeated.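 GI50 marks 50% less growth. TGI is the concentration that stops growth completely.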
# Tests used:
# Test in all cases: DTP human tumour cell line panel, 384-well format
# [1] = test system: 786-0 renal
# [2] = test system: A498 renal
# [3] = test system: A549 NSCLC
# [4] = test system: ACHN renal
# [5] = test system: BT-549 breast
# [6] = test system: CAKI-1 renal
# [7] = test system: COLO 205 colon
# [8] = test system: DU-145 prostate
# [9] = test system: EKVX NSCLC
# [10] = test system: HCC-2998 colon
# [11] = test system: HCT-116 colon
# [12] = test system: HCT-15 colon
# [13] = test system: HL-60(TB) leukemia
# [14] = test system: HOP-62 NSCLC
# [15] = test system: HOP-92 NSCLC
# [16] = test system: HS 578T breast
# [17] = test system: HT29 colon
# [18] = test system: IGROV1 ovarian
# [19] = test system: K-562 leukemia
# [20] = test system: KM12 colon
# [21] = test system: LOX IMVI melanoma
# [22] = test system: M14 melanoma
# [23] = test system: MALME-3M melanoma
# [24] = test system: MCF7 breast
# [25] = test system: MDA-MB-231 breast
# [26] = test system: MDA-MB-435 melanoma
# [27] = test system: MDA-MB-468 breast
# [28] = test system: MOLT-4 leukemia
# [29] = test system: NCI-H226 lung
# [30] = test system: NCI-H23 lung
# [31] = test system: NCI-H322M lung
# [32] = test system: NCI-H460 NSCLC
# [33] = test system: NCI-H522 lung
# [34] = test system: NCI/ADR-RES ovarian
# [35] = test system: OVCAR-3 ovarian
# [36] = test system: OVCAR-4 ovarian
# [37] = test system: OVCAR-5 ovarian
# [38] = test system: OVCAR-8 ovarian
# [39] = test system: PC-3 prostate
# [40] = test system: RPMI-8226 leukemia
# [41] = test system: RXF 393 renal
# [42] = test system: SF-268 CNS
# [43] = test system: SF-295 CNS
# [44] = test system: SF-539 CNS
# [45] = test system: SK-MEL-2 melanoma
# [46] = test system: SK-MEL-28 melanoma
# [47] = test system: SK-MEL-5 melanoma
# [48] = test system: SK-OV-3 ovarian
# [49] = test system: SN12C renal
# [50] = test system: SNB-19 CNS
# [51] = test system: SNB-75 CNS
# [52] = test system: SR leukemia
# [53] = test system: SW-620 colon
# [54] = test system: T-47D breast
# [55] = test system: TK-10 renal
# [56] = test system: U251 glioblastoma
# [57] = test system: UACC-257 melanoma
# [58] = test system: UACC-62 melanoma
# [59] = test system: UO-31 renal
compound,measurement,setting,value
COCCNCCc1cccc(Nc2ncc3c(n2)-c2ccccc2C(c2ccccc2F)C3)c1 (stereo not drawn),GI50,[1],1250 nM and 1500 nM
same,TGI,[1],2520 nM and 2850 nM
same,GI50,[2],1290 nM and 1430 nM
same,TGI,[2],2570 nM and 2760 nM
same,GI50,[3],1780 nM and 1660 nM
same,TGI,[3],3210 nM and 3070 nM
same,GI50,[4],1540 nM and 1300 nM
same,TGI,[4],2890 nM and 2600 nM
same,GI50,[5],1340 nM and 1690 nM
same,TGI,[5],2630 nM and 3080 nM
same,GI50,[6],1310 nM and 1000 nM
same,TGI,[6],2610 nM and 2350 nM
same,GI50,[7],1760 nM and 1740 nM
same,TGI,[7],3170 nM and 3150 nM
same,GI50,[8],1680 nM and 1760 nM
same,TGI,[8],3070 nM and 3170 nM
same,GI50,[9],1550 nM
same,TGI,[9],2910 nM
same,GI50,[10],1190 nM and 1540 nM
same,TGI,[10],2440 nM and 2900 nM
same,GI50,[11],1490 nM and 1740 nM
same,TGI,[11],2860 nM and 3170 nM
same,GI50,[12],1200 nM and 1300 nM
same,TGI,[12],2480 nM and 2620 nM
same,GI50,[13],563 nM and 1950 nM
same,TGI,[13],1050 nM and 3390 nM
same,GI50,[14],1780 nM
same,TGI,[14],3180 nM and 3190 nM
same,GI50,[15],1550 nM and 1610 nM
same,TGI,[15],2900 nM and 2970 nM
same,GI50,[16],1300 nM and 1590 nM
same,TGI,[16],2570 nM and 2940 nM
same,GI50,[17],1520 nM and 1580 nM
same,TGI,[17],2890 nM and 2980 nM
same,GI50,[18],1160 nM and 1190 nM
same,TGI,[18],2390 nM and 2430 nM
same,GI50,[19],186 nM and 75.8 nM
same,TGI,[19],402 nM and 214 nM
same,GI50,[20],1560 nM and 1740 nM
same,TGI,[20],2920 nM and 3150 nM
same,GI50,[21],1360 nM and 1490 nM
same,TGI,[21],2650 nM and 2830 nM
same,GI50,[22],1850 nM and 2140 nM
same,TGI,[22],3260 nM and 3610 nM
same,GI50,[23],1900 nM and 2030 nM
same,TGI,[23],3310 nM and 3470 nM
same,GI50,[24],1280 nM and 1450 nM
same,TGI,[24],2590 nM and 2820 nM
same,GI50,[25],1630 nM and 1430 nM
same,TGI,[25],3000 nM and 2750 nM
same,GI50,[26],1880 nM and 1910 nM
same,TGI,[26],3300 nM and 3340 nM
same,GI50,[27],2040 nM and 1950 nM
same,TGI,[27],3470 nM and 3370 nM
same,GI50,[28],670 nM and 543 nM
same,TGI,[28],1950 nM and 1790 nM
same,GI50,[29],1220 nM and 1500 nM
same,TGI,[29],2470 nM and 2840 nM
same,GI50,[30],1640 nM and 1740 nM
same,TGI,[30],3020 nM and 3130 nM
same,GI50,[31],1720 nM and 1700 nM
same,TGI,[31],3110 nM and 3090 nM
same,GI50,[32],657 nM and 1300 nM
same,TGI,[32],1860 nM and 2650 nM
same,GI50,[33],1670 nM and 1320 nM
same,TGI,[33],3050 nM and 2610 nM
same,GI50,[34],1800 nM and 1890 nM
same,TGI,[34],3210 nM and 3380 nM
same,GI50,[35],1330 nM and 1370 nM
same,TGI,[35],2630 nM and 2680 nM
same,GI50,[36],1330 nM and 1340 nM
same,TGI,[36],2630 nM and 2640 nM
same,GI50,[37],1790 nM and 1800 nM
same,TGI,[37],3200 nM and 3230 nM
same,GI50,[38],1800 nM and 1680 nM
same,TGI,[38],3220 nM and 3080 nM
same,GI50,[39],1590 nM and 1400 nM
same,TGI,[39],2960 nM and 2720 nM
same,GI50,[40],683 nM and 701 nM
same,TGI,[40],1860 nM and 1940 nM
same,GI50,[41],612 nM and 1260 nM
same,TGI,[41],1840 nM and 2520 nM
same,GI50,[42],1600 nM and 1650 nM
same,TGI,[42],2960 nM and 3030 nM
same,GI50,[43],1740 nM and 1820 nM
same,TGI,[43],3140 nM and 3230 nM
same,GI50,[44],1040 nM and 1550 nM
same,TGI,[44],2320 nM and 2910 nM
same,GI50,[45],1360 nM and 1410 nM
same,TGI,[45],2650 nM and 2730 nM
same,GI50,[46],1760 nM and 1830 nM
same,TGI,[46],3150 nM and 3240 nM
same,GI50,[47],1890 nM and 1860 nM
same,TGI,[47],3310 nM and 3280 nM
same,GI50,[48],1350 nM and 1420 nM
same,TGI,[48],2650 nM and 2760 nM
same,GI50,[49],1310 nM and 906 nM
same,TGI,[49],2600 nM and 2340 nM
same,GI50,[50],1920 nM and 1930 nM
same,TGI,[50],3350 nM and 3370 nM
same,GI50,[51],1430 nM and 1540 nM
same,TGI,[51],2750 nM and 2880 nM
same,GI50,[52],255 nM and 168 nM
same,TGI,[52],421 nM and 358 nM
same,GI50,[53],1830 nM and 2290 nM
same,TGI,[53],3240 nM and 3770 nM
same,GI50,[54],1610 nM and 1710 nM
same,TGI,[54],2970 nM and 3100 nM
same,GI50,[55],1680 nM and 1620 nM
same,TGI,[55],3060 nM and 2990 nM
same,GI50,[56],1670 nM and 1980 nM
same,TGI,[56],3070 nM and 3440 nM
same,GI50,[57],1540 nM and 1670 nM
same,TGI,[57],2900 nM and 3060 nM
same,GI50,[58],1770 nM and 1650 nM
same,TGI,[58],3180 nM and 3040 nM
same,GI50,[59],1780 nM and 1740 nM
same,TGI,[59],3180 nM and 3140 nM
